Experimental data as given in patent publication US7521464B2, “Pyrazole compounds for treatment of neurodegenerative disorders” (Pfizer Inc., priority 2002, dated 2009).

System: gamma-secretase
Assay: gamma-secretase activity in a solubilized membrane preparation (cell-free assay per McLendon et al.)
Assay type: biochemical
Conditions: read-out: IC50 activity for inhibiting gamma-secretase activity
Description: The activity of compounds of the invention in inhibiting gamma-secretase activity was determined in a solubilized membrane preparation generally according to the description provided in McLendon et al. Cell-free assays for γ-secretase activity, The FASEB Journal (Vol. 14, December 2000, pp. 2383-2386).

Row | SMILES | IC50
1 | CCCC(NC(=O)CC(C)CCC=C(C)C)C(=O)Nc1cc(-c2ccccc2)n[nH]1 (centres unmarked) [Example 138, 3,7-Dimethyl-oct-6-enoic acid [1-(5-phenyl-2H-pyrazol-3-ylcarbamoyl)-butyl]-amide] | ~5 µM
2 | O=C(Cc1cc(F)cc(F)c1)NC(C(=O)Nc1cc(-c2ccccc2)n[nH]1)c1ccccc1 (centres unmarked) [Example 84, 2-[2-(3,5-difluoro-phenyl)-acetylamino]-2-phenyl-N-(5-phenyl-2H-pyrazol-3-yl)-acetamide] | ~1 µM
